# Results taken from PubChem BioAssay (NCI).
#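 Test compounds were applied to cells in 96-well plates for 48 hours at 5 doses. TGI marks complete inhibition of growth.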
# Assays:
# Assay in all cases: NCI tumour cell line growth inhibition, 48 h
# OVCAR-5 ovarian = test system: OVCAR-5 ovarian
# CCRF-CEM leukemia = test system: CCRF-CEM leukemia
# RXF-631 renal = test system: RXF-631 renal
# HOP-92 NSCLC = test system: HOP-92 NSCLC
# M19-MEL melanoma = test system: M19-MEL melanoma
# A549 NSCLC = test system: A549 NSCLC
# U251 CNS = test system: U251 CNS
# ACHN renal = test system: ACHN renal
# HOP-18 NSCLC = test system: HOP-18 NSCLC
# K-562 leukemia = test system: K-562 leukemia
# XF 498 CNS = test system: XF 498 CNS
# OVCAR-3 ovarian = test system: OVCAR-3 ovarian
# 786-0 renal = test system: 786-0 renal
# SR leukemia = test system: SR leukemia
# NCI-H23 lung = test system: NCI-H23 lung
# HCT-116 colon = test system: HCT-116 colon
# MALME-3M melanoma = test system: MALME-3M melanoma
# COLO 205 colon = test system: COLO 205 colon
# SK-MEL-28 melanoma = test system: SK-MEL-28 melanoma
# NCI-H522 lung = test system: NCI-H522 lung
# LXFL 529 NSCLC = test system: LXFL 529 NSCLC
# UACC-62 melanoma = test system: UACC-62 melanoma
# SW-620 colon = test system: SW-620 colon
# HL-60(TB) leukemia = test system: HL-60(TB) leukemia
# LOX IMVI melanoma = test system: LOX IMVI melanoma
# MOLT-4 leukemia = test system: MOLT-4 leukemia
# DLD-1 colon = test system: DLD-1 colon
# HOP-62 NSCLC = test system: HOP-62 NSCLC
# DMS 114 small cell lung = test system: DMS 114 small cell lung
# UACC-257 melanoma = test system: UACC-257 melanoma
# M14 melanoma = test system: M14 melanoma
# IGROV1 ovarian = test system: IGROV1 ovarian
# SNB-78 CNS = test system: SNB-78 CNS
# SF-539 CNS = test system: SF-539 CNS
# SF-295 CNS = test system: SF-295 CNS
# SN12C renal = test system: SN12C renal
# TK-10 renal = test system: TK-10 renal
# SNB-75 CNS = test system: SNB-75 CNS
# UO-31 renal = test system: UO-31 renal
# NCI-H460 lung = test system: NCI-H460 lung
# DMS 273 small cell lung = test system: DMS 273 small cell lung
# OVCAR-4 ovarian = test system: OVCAR-4 ovarian
# OVCAR-8 ovarian = test system: OVCAR-8 ovarian
# SNB-19 CNS = test system: SNB-19 CNS
# KM12 colon = test system: KM12 colon
# HT29 colon = test system: HT29 colon
# SK-MEL-5 melanoma = test system: SK-MEL-5 melanoma
# CAKI-1 renal = test system: CAKI-1 renal
# RXF 393 renal = test system: RXF 393 renal
# HCC-2998 colon = test system: HCC-2998 colon
# SF-268 CNS = test system: SF-268 CNS
# MCF7 breast = test system: MCF7 breast
# NCI/ADR-RES ovarian = test system: NCI/ADR-RES ovarian
# A498 renal = test system: A498 renal
# DU-145 prostate = test system: DU-145 prostate
# RPMI-8226 leukemia = test system: RPMI-8226 leukemia
# MDA-N = test system: MDA-N
# PC-3 prostate = test system: PC-3 prostate
# HS 578T breast = test system: HS 578T breast
# T-47D breast = test system: T-47D breast
# SK-OV-3 ovarian = test system: SK-OV-3 ovarian
# BT-549 breast = test system: BT-549 breast
# MDA-MB-435 = test system: MDA-MB-435
# NCI-H226 lung = test system: NCI-H226 lung
# SK-MEL-2 melanoma = test system: SK-MEL-2 melanoma
# KM20L2 colon = test system: KM20L2 colon
# EKVX NSCLC = test system: EKVX NSCLC
# MDA-MB-231 breast = test system: MDA-MB-231 breast
# HCT-15 colon = test system: HCT-15 colon
compound,measurement,setting,value
Cc1cccc(NC(=O)CC(=O)N2N=C(N(CCC#N)c3ccc(Cl)cc3)CC2c2ccccc2)c1 (centres undefined),TGI,OVCAR-5 ovarian,> 100 µM
same,TGI,CCRF-CEM leukemia,> 100 µM
same,TGI,RXF-631 renal,> 100 µM
same,TGI,HOP-92 NSCLC,> 100 µM
same,TGI,M19-MEL melanoma,> 100 µM
same,TGI,A549 NSCLC,> 100 µM
same,TGI,U251 CNS,> 100 µM
same,TGI,ACHN renal,> 100 µM
same,TGI,HOP-18 NSCLC,> 100 µM
same,TGI,K-562 leukemia,> 100 µM
same,TGI,XF 498 CNS,> 100 µM
same,TGI,OVCAR-3 ovarian,> 100 µM
same,TGI,786-0 renal,> 100 µM
same,TGI,SR leukemia,> 100 µM
same,TGI,NCI-H23 lung,> 100 µM
same,TGI,HCT-116 colon,> 100 µM
same,TGI,MALME-3M melanoma,> 100 µM
same,TGI,COLO 205 colon,> 100 µM
same,TGI,SK-MEL-28 melanoma,> 100 µM
same,TGI,NCI-H522 lung,> 100 µM
same,TGI,LXFL 529 NSCLC,> 100 µM
same,TGI,UACC-62 melanoma,> 100 µM
same,TGI,SW-620 colon,> 100 µM
same,TGI,HL-60(TB) leukemia,> 100 µM
same,TGI,LOX IMVI melanoma,> 100 µM
same,TGI,MOLT-4 leukemia,> 100 µM
same,TGI,DLD-1 colon,> 100 µM
same,TGI,HOP-62 NSCLC,> 100 µM
same,TGI,DMS 114 small cell lung,> 100 µM
same,TGI,UACC-257 melanoma,> 100 µM
same,TGI,M14 melanoma,> 100 µM
same,TGI,IGROV1 ovarian,> 100 µM
same,TGI,SNB-78 CNS,> 100 µM
same,TGI,SF-539 CNS,> 100 µM
same,TGI,SF-295 CNS,> 100 µM
same,TGI,SN12C renal,> 100 µM
same,TGI,TK-10 renal,> 100 µM
same,TGI,SNB-75 CNS,> 100 µM
same,TGI,UO-31 renal,> 100 µM
same,TGI,NCI-H460 lung,> 100 µM
same,TGI,DMS 273 small cell lung,> 100 µM
same,TGI,OVCAR-4 ovarian,> 100 µM
same,TGI,OVCAR-8 ovarian,> 100 µM
same,TGI,SNB-19 CNS,> 100 µM
same,TGI,KM12 colon,> 100 µM
same,TGI,HT29 colon,> 100 µM
same,TGI,SK-MEL-5 melanoma,> 100 µM
same,TGI,CAKI-1 renal,> 100 µM
same,TGI,RXF 393 renal,> 100 µM
same,TGI,HCC-2998 colon,> 100 µM
same,TGI,SF-268 CNS,> 100 µM
CCN(CC)CCn1ccc(=O)c2cc3c(=O)ccn(CCN(CC)CC)c3c(C)c21,TGI,OVCAR-5 ovarian,29.9 µM
same,TGI,CCRF-CEM leukemia,29.6 µM
same,TGI,RXF-631 renal,21.5 µM
same,TGI,MCF7 breast,> 100 µM
same,TGI,NCI/ADR-RES ovarian,5.2 µM
same,TGI,A498 renal,29.2 µM
same,TGI,HOP-92 NSCLC,19.5 µM
same,TGI,M19-MEL melanoma,25.2 µM
same,TGI,DU-145 prostate,20.7 µM
same,TGI,RPMI-8226 leukemia,6.8 µM
same,TGI,MDA-N,18 µM
same,TGI,PC-3 prostate,15.9 µM
same,TGI,HS 578T breast,17.5 µM
same,TGI,A549 NSCLC,14.1 µM
same,TGI,U251 CNS,19.7 µM
same,TGI,ACHN renal,20.1 µM
same,TGI,HOP-18 NSCLC,30 µM
same,TGI,K-562 leukemia,26.8 µM
same,TGI,XF 498 CNS,21.4 µM
same,TGI,OVCAR-3 ovarian,23.6 µM
same,TGI,786-0 renal,8.56 µM
same,TGI,SR leukemia,3.94 µM
same,TGI,NCI-H23 lung,19.3 µM
same,TGI,T-47D breast,50 µM
same,TGI,HCT-116 colon,9.08 µM
same,TGI,MALME-3M melanoma,29.6 µM
same,TGI,COLO 205 colon,15.3 µM
same,TGI,SK-MEL-28 melanoma,35.1 µM
same,TGI,NCI-H522 lung,20.7 µM
same,TGI,LXFL 529 NSCLC,16.5 µM
same,TGI,UACC-62 melanoma,29.2 µM
same,TGI,SW-620 colon,5.26 µM
same,TGI,HL-60(TB) leukemia,3.54 µM
same,TGI,LOX IMVI melanoma,7.55 µM
same,TGI,MOLT-4 leukemia,> 100 µM
same,TGI,SK-OV-3 ovarian,15.9 µM
same,TGI,DLD-1 colon,7.83 µM
same,TGI,HOP-62 NSCLC,19.7 µM
same,TGI,DMS 114 small cell lung,27.6 µM
same,TGI,UACC-257 melanoma,33.9 µM
same,TGI,M14 melanoma,22.5 µM
same,TGI,IGROV1 ovarian,22 µM
same,TGI,SNB-78 CNS,26.9 µM
same,TGI,BT-549 breast,29.2 µM
same,TGI,SF-539 CNS,24.2 µM
same,TGI,SF-295 CNS,17.2 µM
same,TGI,SN12C renal,21.3 µM
same,TGI,TK-10 renal,26.7 µM
same,TGI,SNB-75 CNS,22.7 µM
same,TGI,UO-31 renal,17.1 µM
same,TGI,NCI-H460 lung,3.47 µM
same,TGI,DMS 273 small cell lung,15.1 µM
same,TGI,MDA-MB-435,16.7 µM
same,TGI,OVCAR-4 ovarian,9.43 µM
same,TGI,OVCAR-8 ovarian,15.5 µM
same,TGI,SNB-19 CNS,18.3 µM
same,TGI,KM12 colon,2.61 µM
same,TGI,HT29 colon,12.7 µM
same,TGI,SK-MEL-5 melanoma,29.1 µM
same,TGI,CAKI-1 renal,18.3 µM
same,TGI,NCI-H226 lung,23.8 µM
same,TGI,SK-MEL-2 melanoma,24.5 µM
same,TGI,RXF 393 renal,14.1 µM
same,TGI,KM20L2 colon,15.4 µM
same,TGI,EKVX NSCLC,18.8 µM
same,TGI,MDA-MB-231 breast,18.3 µM
same,TGI,HCT-15 colon,15.6 µM
same,TGI,HCC-2998 colon,2.93 µM
same,TGI,SF-268 CNS,17.2 µM
COc1ccc2c(c1)C(O)(C(F)(F)F)c1cc(C(=O)C(F)(F)F)c3ccccc3c1N2 (centres undefined),TGI,OVCAR-5 ovarian,27.5 µM
same,TGI,CCRF-CEM leukemia,29.2 µM
same,TGI,RXF-631 renal,34.6 µM
same,TGI,A498 renal,27.4 µM
same,TGI,HOP-92 NSCLC,29.6 µM
same,TGI,M19-MEL melanoma,28.2 µM
same,TGI,A549 NSCLC,28.3 µM
same,TGI,ACHN renal,18.1 µM
same,TGI,HOP-18 NSCLC,33.3 µM
same,TGI,K-562 leukemia,15.7 µM
same,TGI,OVCAR-3 ovarian,29.4 µM
same,TGI,786-0 renal,26.3 µM
same,TGI,NCI-H23 lung,25.6 µM
same,TGI,COLO 205 colon,19.5 µM
same,TGI,SK-MEL-28 melanoma,27.7 µM
same,TGI,NCI-H522 lung,20.6 µM
same,TGI,LXFL 529 NSCLC,22 µM
same,TGI,UACC-62 melanoma,15.4 µM
same,TGI,SW-620 colon,26.8 µM
same,TGI,HL-60(TB) leukemia,43.2 µM
same,TGI,LOX IMVI melanoma,16.5 µM
same,TGI,MOLT-4 leukemia,33.8 µM
same,TGI,SK-OV-3 ovarian,31.6 µM
same,TGI,DLD-1 colon,22.4 µM
same,TGI,DMS 114 small cell lung,22.1 µM
same,TGI,UACC-257 melanoma,26.4 µM
same,TGI,M14 melanoma,18.1 µM
same,TGI,IGROV1 ovarian,27.9 µM
same,TGI,SF-539 CNS,31.3 µM
same,TGI,SF-295 CNS,26.5 µM
same,TGI,TK-10 renal,27.4 µM
same,TGI,SNB-75 CNS,36 µM
same,TGI,UO-31 renal,21.5 µM
same,TGI,NCI-H460 lung,22.3 µM
same,TGI,DMS 273 small cell lung,23.1 µM
same,TGI,OVCAR-4 ovarian,22.4 µM
same,TGI,SNB-19 CNS,29.5 µM
same,TGI,KM12 colon,15.6 µM
same,TGI,HT29 colon,20.3 µM
same,TGI,SK-MEL-5 melanoma,26.6 µM
same,TGI,CAKI-1 renal,26.8 µM
same,TGI,NCI-H226 lung,28 µM
same,TGI,SK-MEL-2 melanoma,25.2 µM
same,TGI,RXF 393 renal,23.8 µM
same,TGI,KM20L2 colon,13.7 µM
same,TGI,EKVX NSCLC,34.1 µM
same,TGI,HCT-15 colon,21 µM
same,TGI,HCC-2998 colon,24.3 µM
same,TGI,SF-268 CNS,24.1 µM
